Data published in patent US20080146669A1, “Novel Chloride Channel Pore Openers” (THE UAB RESEARCH FOUNDATION, priority 2005, published 2008).
Where two headings read alike, the source gives them in different places.

Tests used:
Assay type in all cases: biochemical
[1] = biological target: T1, AR-S660A-CFTR (Homo sapiens, UniProt P13569, DEL708-835/S660A); test: Macroscopic currents in excised HEK-293T patches, R domain deletion mutant, no PKA; details: 10 μM
T1 construct: expressed in transfected cells; host or cells: HEK-293T, transient
Procedure: (§1) Cell culture DNA constructs and transfections. Baby hamster kidney (BHK) cells stably expressing wild type human CFTR (BHK-CFTR) were provided by J. Hanrahan (McGill University). BHK-CFTR cells were cultured in Dulbecco's modified Eagle's medium (DMEM (Mediatech)) supplemented with 5% fetal bovine serum (FBS) and 1 mM penicillin-streptomycin. The growth media for the BHK-CFTR cells also contained 0.5 mM methotrexate to maintain selection for CFTR-expressing cells (22). HEK-293T cells were transiently transfected with wild-type or mutant CFTR cDNA using the Lipofectamine transfection kit following manufacturer's recommendations (Invitrogen, Corp). HEK-293T cells were cultured in DMEM. All cells were grown on plastic coverslips for patch clamp recording and were used 2-3 days post-seeding. Electrophysiology and data analysis. Macroscopic and multi-channel currents were recorded in the excised, inside-out configuration. Patch pipettes were pulled from Corning 8161 glass to tip resistances of […] (macroscopic recordings) or 8-10 mOhm (micropatch studies). CFTR channels were activated following patch excision by exposure of the cytoplasmic face of the patch to catalytic subunit of protein kinase A (PKA; 110 U/ml; Promega) and Mg-ATP (1.5 mM). CFTR currents were recorded in symmetrical solution containing (in mM): 140 N-methyl-D-glucaniine-Cl, 3 MgCl2, 1 EGTA and 10 TES. […]

[2] = biological target: T2, G551D-CFTR (Homo sapiens, UniProt P13569, G551D); test: Macroscopic currents in excised patches from HEK-293T cells expressing G551D-CFTR; details: 10 μM
T2 construct: expressed in transfected cells; host or cells: HEK-293T, transient
Procedure: as §1, with “TES. The pH was adjusted to 7.3. Macroscopic currents were evoked using a ramp protocol from +80 to −80 mV with a 10 sec time period. Patches were held at −80 mV or +80 mV for micropatch (multichannel) recordings. All patch clamp experiments were performed at 21-23° C. Signals from macroscopic and single channel recording were filtered at 20 and 200 Hz, respectively. Data acquisition and analysis were performed using pCLAMP8 and pCLAMP9 software (Axon Instruments). Curve fitting for kinetic analysis was performed using Microcal Origin software. Averaged data are presented as mean +/−SEM. Statistical comparisons were made by performing unpaired t-tests unless otherwise indicated.” for “TES.”

[3] = biological target: T3, wild-type CFTR (Homo sapiens, UniProt P13569); test: Micropatch (multichannel) recording of BHK-CFTR patches, opening rate and Po; set-up: expressed in transfected cells; provided by J. Hanrahan (McGill University)
Procedure: as §1, with “CFTR channels were activated following patch excision by exposure of the cytoplasmic face of the patch to catalytic subunit of protein kinase A (PKA; 110 U/ml; Promega) and Mg-ATP (1.5 mM).” left out, “TES. The pH was adjusted to 7.3. Macroscopic currents were evoked using a ramp protocol from +80 to −80 mV with a 10 sec time period. Patches were held at −80 mV or +80 mV for micropatch (multichannel) recordings. All patch clamp experiments were performed at 21-23° C. Signals from macroscopic and single channel recording were filtered at 20 and 200 Hz, respectively. Data acquisition and analysis were performed using pCLAMP8 and pCLAMP9 software (Axon Instruments). Curve fitting for kinetic analysis was performed using Microcal Origin software. Averaged data are presented as mean +/−SEM. Statistical comparisons were made by performing unpaired t-tests unless otherwise indicated.” for “TES.”

[4] = biological target: T4, ΔF508-CFTR (Homo sapiens, UniProt P13569, DEL508-508); test: Micropatch recording of HEK-293T patches expressing ΔF508-CFTR, opening rate and Po
T4 construct: expressed in transfected cells; host or cells: HEK-293T, transient; grown at 28° C. for 24 hrs
Procedure: (§2) Cell culture DNA constructs and transfections. Baby hamster kidney (BHK) cells stably expressing wild type human CFTR (BHK-CFTR) were provided by J. Hanrahan (McGill University). BHK-CFTR cells were cultured in Dulbecco's modified Eagle's medium (DMEM (Mediatech)) supplemented with 5% fetal bovine serum (FBS) and 1 mM penicillin-streptomycin. The growth media for the BHK-CFTR cells also contained 0.5 mM methotrexate to maintain selection for CFTR-expressing cells (22). HEK-293T cells were transiently transfected with wild-type or mutant CFTR cDNA using the Lipofectamine transfection kit following manufacturer's recommendations (Invitrogen, Corp). HEK-293T cells were cultured in DMEM. All cells were grown on plastic coverslips for patch clamp recording and were used 2-3 days post-seeding. Electrophysiology and data analysis. Macroscopic and multi-channel currents were recorded in the excised, inside-out configuration. Patch pipettes were pulled from Corning 8161 glass to tip resistances of […] (macroscopic recordings) or 8-10 mOhm (micropatch studies). CFTR channels were activated following patch excision by exposure of the cytoplasmic face of the patch to catalytic subunit of protein kinase A (PKA; 110 U/ml; Promega) and Mg-ATP (1.5 mM). CFTR currents were recorded in symmetrical solution containing (in mM): 140 N-methyl-D-glucaniine-Cl, 3 MgCl2, 1 EGTA and 10 TES. The pH was adjusted to 7.3. Macroscopic currents were evoked using a ramp protocol from +80 to −80 mV with a 10 sec time period. Patches were held at −80 mV or +80 mV for micropatch (multichannel) recordings. All patch clamp experiments were performed at 21-23° C. Signals from macroscopic and single channel recording were filtered at 20 and 200 Hz, respectively. Data acquisition and analysis were performed using pCLAMP8 and pCLAMP9 software (Axon Instruments). Curve fitting for kinetic analysis was performed using Microcal Origin software. Averaged data are presented as mean +/−SEM. Statistical comparisons were made by performing unpaired t-tests unless otherwise indicated. Ussing Chamber Experiments-CFBE41o epithelial cells stably transfected with ΔF508-CFTR or transiently transfected with wild-type CFTR were cultured as electrically resistive monolayers and assayed in Ussing chambers as described (16). ΔF508-CFTR-expressing monolayers were grown at 27° C. for 2-3 days to enhance the surface expression of this temperature-sensitive mutant. A serosal-to-mucosal Cl^− gradient (120 to 1.2 mM) was imposed, followed by amiloride addition (100 μM) to block Na^+ currents. Compounds were added to both chambers at the indicated concentrations. A 3-mV voltage pulse was imposed every 100 s to monitor transepithelial resistance.

[5] = biological target: T3, wild-type CFTR; test: Macroscopic currents in excised inside-out patches from BHK-CFTR cells; set-up: expressed in transfected cells; provided by J. Hanrahan (McGill University); details: for EC50: moderately phosphorylated wild-type channels, normalized to peak current at 10 μM, read-out: EC50 of CFTR current stimulation (titration)
Procedure: as §2, with “CFTR channels were activated following patch excision by exposure of the cytoplasmic face of the patch to catalytic subunit of protein kinase A (PKA; 110 U/ml; Promega) and Mg-ATP (1.5 mM).” left out

[6] = 10 μM, poorly phosphorylated, −80 mV, best guess estimate, mean±S.E., n=7
[7] = 10 μM, high PKA, 1.5 mM MgATP, −80 mV, best guess estimate, mean±S.E., n=4

T4 sequence (P13569 with tags, fused parts or gaps DEL508-508): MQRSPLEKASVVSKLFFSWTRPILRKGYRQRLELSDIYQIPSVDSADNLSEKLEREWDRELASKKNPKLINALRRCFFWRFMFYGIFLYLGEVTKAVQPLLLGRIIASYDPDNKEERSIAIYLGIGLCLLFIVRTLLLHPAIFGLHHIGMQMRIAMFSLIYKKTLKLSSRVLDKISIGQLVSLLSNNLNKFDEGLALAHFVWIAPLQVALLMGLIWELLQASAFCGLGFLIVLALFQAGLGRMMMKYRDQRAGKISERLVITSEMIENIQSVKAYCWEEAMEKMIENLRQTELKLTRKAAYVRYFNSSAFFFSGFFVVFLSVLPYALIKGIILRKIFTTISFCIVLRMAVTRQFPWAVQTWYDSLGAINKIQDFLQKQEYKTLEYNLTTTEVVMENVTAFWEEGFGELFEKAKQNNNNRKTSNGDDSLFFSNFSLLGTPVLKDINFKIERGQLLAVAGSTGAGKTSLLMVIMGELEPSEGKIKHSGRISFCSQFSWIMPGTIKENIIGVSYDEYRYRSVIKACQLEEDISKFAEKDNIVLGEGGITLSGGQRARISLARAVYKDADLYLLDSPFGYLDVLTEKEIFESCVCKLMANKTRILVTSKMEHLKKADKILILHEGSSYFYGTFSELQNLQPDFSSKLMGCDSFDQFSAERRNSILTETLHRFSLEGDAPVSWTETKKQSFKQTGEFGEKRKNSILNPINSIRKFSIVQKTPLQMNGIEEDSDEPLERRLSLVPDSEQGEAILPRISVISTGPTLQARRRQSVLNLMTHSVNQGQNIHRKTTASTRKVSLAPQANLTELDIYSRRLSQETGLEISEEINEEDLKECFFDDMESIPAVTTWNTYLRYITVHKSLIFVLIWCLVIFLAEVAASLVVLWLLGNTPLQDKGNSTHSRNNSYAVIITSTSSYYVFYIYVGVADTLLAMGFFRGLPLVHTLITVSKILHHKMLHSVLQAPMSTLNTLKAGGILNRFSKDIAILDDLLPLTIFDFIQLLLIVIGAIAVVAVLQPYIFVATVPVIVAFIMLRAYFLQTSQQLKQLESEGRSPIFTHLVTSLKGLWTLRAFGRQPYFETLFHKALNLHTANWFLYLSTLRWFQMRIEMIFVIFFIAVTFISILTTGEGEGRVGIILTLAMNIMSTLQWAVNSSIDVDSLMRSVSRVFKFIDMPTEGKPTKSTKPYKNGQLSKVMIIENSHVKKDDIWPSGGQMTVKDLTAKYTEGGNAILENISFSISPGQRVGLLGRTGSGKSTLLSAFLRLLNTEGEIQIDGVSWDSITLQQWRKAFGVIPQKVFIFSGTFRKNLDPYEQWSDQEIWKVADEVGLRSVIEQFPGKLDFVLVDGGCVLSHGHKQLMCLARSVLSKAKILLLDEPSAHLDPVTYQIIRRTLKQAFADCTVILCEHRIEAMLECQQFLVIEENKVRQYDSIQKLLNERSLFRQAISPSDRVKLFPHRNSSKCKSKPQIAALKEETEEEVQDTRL
T3 sequence (P13569 whole entry): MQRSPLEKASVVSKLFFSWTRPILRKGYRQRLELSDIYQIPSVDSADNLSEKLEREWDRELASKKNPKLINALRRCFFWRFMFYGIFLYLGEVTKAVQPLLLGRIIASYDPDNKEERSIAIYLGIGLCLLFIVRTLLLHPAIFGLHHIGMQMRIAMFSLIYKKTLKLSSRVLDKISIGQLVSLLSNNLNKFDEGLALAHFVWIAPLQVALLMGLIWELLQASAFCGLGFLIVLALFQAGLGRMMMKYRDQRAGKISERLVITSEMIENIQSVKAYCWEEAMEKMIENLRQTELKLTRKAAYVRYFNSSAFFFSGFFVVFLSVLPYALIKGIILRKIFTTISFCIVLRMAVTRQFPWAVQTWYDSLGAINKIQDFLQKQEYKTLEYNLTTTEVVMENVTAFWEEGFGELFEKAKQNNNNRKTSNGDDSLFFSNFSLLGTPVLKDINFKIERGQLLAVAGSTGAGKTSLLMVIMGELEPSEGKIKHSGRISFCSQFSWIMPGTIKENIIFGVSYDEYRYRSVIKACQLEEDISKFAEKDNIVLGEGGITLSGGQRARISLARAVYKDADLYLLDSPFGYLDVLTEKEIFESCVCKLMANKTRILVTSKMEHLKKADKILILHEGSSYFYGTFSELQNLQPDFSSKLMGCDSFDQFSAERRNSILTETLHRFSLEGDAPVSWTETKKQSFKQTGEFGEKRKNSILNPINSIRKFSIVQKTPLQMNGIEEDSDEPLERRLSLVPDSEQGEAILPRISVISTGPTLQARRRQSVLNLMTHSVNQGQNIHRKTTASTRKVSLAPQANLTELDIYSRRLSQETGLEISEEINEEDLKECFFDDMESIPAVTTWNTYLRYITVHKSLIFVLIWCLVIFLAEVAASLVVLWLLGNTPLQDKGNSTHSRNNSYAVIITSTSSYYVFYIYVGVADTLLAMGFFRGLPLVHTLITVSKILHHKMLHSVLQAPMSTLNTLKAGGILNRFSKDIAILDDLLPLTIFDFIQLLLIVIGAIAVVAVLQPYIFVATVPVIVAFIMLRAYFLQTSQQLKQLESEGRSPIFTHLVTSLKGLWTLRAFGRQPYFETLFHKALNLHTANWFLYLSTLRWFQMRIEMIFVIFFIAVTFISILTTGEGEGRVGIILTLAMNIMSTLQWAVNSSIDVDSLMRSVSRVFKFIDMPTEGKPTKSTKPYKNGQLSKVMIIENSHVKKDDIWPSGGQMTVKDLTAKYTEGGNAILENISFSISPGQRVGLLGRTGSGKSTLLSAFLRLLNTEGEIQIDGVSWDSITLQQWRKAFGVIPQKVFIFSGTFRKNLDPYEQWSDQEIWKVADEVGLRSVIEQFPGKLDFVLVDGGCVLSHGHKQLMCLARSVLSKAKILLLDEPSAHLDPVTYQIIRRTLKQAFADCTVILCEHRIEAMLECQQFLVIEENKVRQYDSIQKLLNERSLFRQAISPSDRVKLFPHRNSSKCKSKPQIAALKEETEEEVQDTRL
T1 sequence (P13569 with tags, fused parts or gaps S660A/DEL708-835): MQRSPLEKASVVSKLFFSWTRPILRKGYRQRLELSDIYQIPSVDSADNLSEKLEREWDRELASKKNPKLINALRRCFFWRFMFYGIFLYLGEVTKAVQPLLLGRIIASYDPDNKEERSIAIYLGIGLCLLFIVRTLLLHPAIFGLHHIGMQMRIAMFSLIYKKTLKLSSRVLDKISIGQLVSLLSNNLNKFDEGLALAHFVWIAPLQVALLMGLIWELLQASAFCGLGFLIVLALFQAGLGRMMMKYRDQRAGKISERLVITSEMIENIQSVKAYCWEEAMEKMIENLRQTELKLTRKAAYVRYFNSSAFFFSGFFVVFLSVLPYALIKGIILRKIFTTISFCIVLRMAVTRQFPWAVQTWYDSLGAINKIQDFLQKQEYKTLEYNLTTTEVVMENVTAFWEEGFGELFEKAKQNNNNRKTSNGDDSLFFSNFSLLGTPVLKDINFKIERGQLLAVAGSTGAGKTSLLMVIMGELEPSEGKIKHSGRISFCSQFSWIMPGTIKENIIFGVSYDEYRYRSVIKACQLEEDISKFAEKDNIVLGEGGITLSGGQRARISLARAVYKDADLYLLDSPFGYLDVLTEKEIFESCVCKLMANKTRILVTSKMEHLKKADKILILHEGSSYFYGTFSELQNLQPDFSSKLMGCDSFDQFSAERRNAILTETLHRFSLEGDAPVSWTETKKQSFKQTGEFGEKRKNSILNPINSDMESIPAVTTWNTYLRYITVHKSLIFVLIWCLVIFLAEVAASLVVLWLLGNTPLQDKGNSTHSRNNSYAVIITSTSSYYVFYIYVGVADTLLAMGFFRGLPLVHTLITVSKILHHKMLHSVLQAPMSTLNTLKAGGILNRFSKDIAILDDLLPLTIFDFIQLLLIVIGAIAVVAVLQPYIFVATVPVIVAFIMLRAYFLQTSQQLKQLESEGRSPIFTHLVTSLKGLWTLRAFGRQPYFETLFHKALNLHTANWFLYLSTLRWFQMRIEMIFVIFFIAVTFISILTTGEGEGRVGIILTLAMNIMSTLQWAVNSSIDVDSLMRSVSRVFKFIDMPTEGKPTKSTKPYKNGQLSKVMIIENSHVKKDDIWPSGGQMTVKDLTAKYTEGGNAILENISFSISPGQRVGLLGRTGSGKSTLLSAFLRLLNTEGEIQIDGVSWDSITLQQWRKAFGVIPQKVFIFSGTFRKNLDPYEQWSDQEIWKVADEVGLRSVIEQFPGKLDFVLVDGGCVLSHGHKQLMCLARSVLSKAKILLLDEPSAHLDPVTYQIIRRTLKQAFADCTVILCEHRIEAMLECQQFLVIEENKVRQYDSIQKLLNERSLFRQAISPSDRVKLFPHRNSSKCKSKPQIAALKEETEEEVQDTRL
T2 sequence (P13569 whole entry G551D): as the sequence (P13569 whole entry) above, with G551D counted along it

effect on currents in the absence of PKA [1]: markedly stimulate | effect on G551D-CFTR activity [2]: only modestly stimulated | mean single channel opening rate, post compound [3, 6]: 1.07±0.29 openings/s/channel | single channel Po, post compound [3, 6]: 0.26±0.06 | mean single channel opening rate, post compound [4, 7]: 0.87±0.31 openings/s/channel | single channel Po, post compound [4, 7]: 0.25±0.07 | simultaneous openings after compound addition ([4]; 10 μM, representative micropatch, no more than 2 before addition): 12-15 | effect on ΔF508-CFTR channel opening rate ([4]; fewer than 10 detectable channels per patch): large increase in channel opening rate | increase of the current ([5]; 125 nM, mean titration data, n=8): approximately 20% | increase of the current ([5]; 250 nM, representative patch): 25% | effect on currents of poorly phosphorylated or thiolated CFTR channels ([5]; 10 μM): effectively stimulated the currents | effect on currents of moderately phosphorylated wild-type channels ([5]; 10 μM, high PKA followed by PKI): stimulates currents in both directions | effect on the Mg-ATP sensitivity of CFTR activity ([5]; Mg-ATP titration with and without compound, data not shown): no obvious effect | EC50 ([5]; listed as NPPB-AM): 960 nM | EC50 [5]: 710 nM | lowest concentration with detectable increases in CFTR currents ([5]; titration experiments): 250 nM
SMILES: NC(=O)c1cc([N+](=O)[O-])ccc1NCCCc1ccccc1 [NPPB-Am]
effect on opening rates and mean single channel open probabilities (Pos) ([3]; poorly phosphorylated (2 U/ml PKA), fewer than 10 channels per patch): markedly increased the opening rates and mean single channel open probabilities | relative stimulation as a function of CFTR phosphorylation [5]: greater relative stimulatory effect on poorly phosphorylated CFTR channels | time course and reversibility of the stimulation of CFTR current [5]: rapid, stable and quickly reversible upon wash out | voltage dependence of the stimulation of CFTR current [5]: voltage-independent with no evidence for CFTR inhibition at any holding potential
